Test results as given in patent US20230233567A1, “BELVARAFENIB FOR USE IN CANCER TREATMENT” (Hanmi Pharm. Co., Ltd., priority 2020, published 2023).
Several values for one entry are separate records, joined by “and”; a condition that tells them apart may be missing. Equal entries are not always repeated.

Experiments:
[1] = tested on: SNU80 (BRAF^G468R); assay: In vitro cell growth inhibition, thyroid cancer; type: cell-based
[2] = biological target: CRAF (Homo sapiens, UniProt P04049, Y340D/Y341D); assay: RAF inhibition Ki; type: biochemical
Method: (§1) Belvarafenib was evaluated to measure the inhibition capability of RAF monomers and dimers. In Table 12: “A375” refers to the A375 a human melanoma cell line bearing a BRAF^V600E mutation; “IPC298” refers to the IPC298 cutaneous melanoma cell line bearing an NRAS^Q61L mutation; “A549” refers to the A549 lung adenocarcinoma cell line baring a KRAS mutation; “CSFR1” refers to the CSFR1 gene; “DDR1” refers to discoidin domain receptors DDR1; and “DDR2” refers to discoidin domain receptors DDR2. In Table 13: “% P/T−MEK” refers to the ratio of P-MEK and total MEK; “Conc 1” refers to an inhibitor first (lowest) concentration; “Conc 2” refers to an inhibitor second (intermediate) concentration; and “Conc 3” refers to an inhibitor third (highest) concentration. In Table 13, LXH254 refers to a drug having CAS No.: 1800398-38-2 and the following structure: […]

[3] = biological target: BRAF (Homo sapiens, UniProt P15056); assay: RAF inhibition Ki; type: biochemical
Method: as §1

[4] = biological target: BRAF^V600E (Homo sapiens, UniProt P15056, V600E); assay: RAF inhibition Ki; type: biochemical
Method: as §1

[5] = tested on: locally advanced and/or metastatic solid tumors carrying mutations in the BRAF, KRAS, and/or NRAS genes; assay: Phase I dose-escalation tumor response (RECIST v1.1); type: in vivo, human; settings: for Best Change (size of target lesions from baseline): partial responder; for tumor response duration: n=1; for BORR (unconf.) / DCR / ORR (conf.) / PFS Median / DOR Median: Dose-Escalation
Method: Phase I dose-escalation (NCT02405065) and dose-expansion studies (NCT02405065) were conducted in patients with locally advanced and/or metastatic solid tumors carrying mutations in the BRAF, KRAS, and/or NRAS genes.
Eligible patients had measurable or evaluable disease per the Response Evaluation Criteria in Solid Tumors version 1.1 (RECIST v1.1). See Eisenhauer E A, Therasse P, Bogaerts J, et al., “New response evaluation criteria in solid tumours: revised RECIST guideline (version 1.1)”, Eur J Cancer 45:228-47, 2009. All patients had progressed on one or more prior lines of therapy or had no available standard therapy at the time of study entry. Additional eligibility criteria included Eastern Cooperative Oncology Group (ECOG) performance status ≤2 and life expectancy ≥12 weeks. Patients with cardiovascular abnormalities as mean QTcF>440 msec were excluded from the dose-expansion phase.
Tumor response assessments were performed radiographically by the investigator using RECIST version 1.1 at baseline, and at the end of every two treatment cycles until discontinuation. Safety evaluation (Safety Set) included all patients who received one or more doses of belvarafenib and efficacy evaluation (Full Analysis Set) included subjects who received at least one dose of belvarafenib and had at least one post-dose tumor response assessment.

[6] = BRAF^V600E Melanoma, 450 mg BID

BRAF, sequence (P15056 whole entry): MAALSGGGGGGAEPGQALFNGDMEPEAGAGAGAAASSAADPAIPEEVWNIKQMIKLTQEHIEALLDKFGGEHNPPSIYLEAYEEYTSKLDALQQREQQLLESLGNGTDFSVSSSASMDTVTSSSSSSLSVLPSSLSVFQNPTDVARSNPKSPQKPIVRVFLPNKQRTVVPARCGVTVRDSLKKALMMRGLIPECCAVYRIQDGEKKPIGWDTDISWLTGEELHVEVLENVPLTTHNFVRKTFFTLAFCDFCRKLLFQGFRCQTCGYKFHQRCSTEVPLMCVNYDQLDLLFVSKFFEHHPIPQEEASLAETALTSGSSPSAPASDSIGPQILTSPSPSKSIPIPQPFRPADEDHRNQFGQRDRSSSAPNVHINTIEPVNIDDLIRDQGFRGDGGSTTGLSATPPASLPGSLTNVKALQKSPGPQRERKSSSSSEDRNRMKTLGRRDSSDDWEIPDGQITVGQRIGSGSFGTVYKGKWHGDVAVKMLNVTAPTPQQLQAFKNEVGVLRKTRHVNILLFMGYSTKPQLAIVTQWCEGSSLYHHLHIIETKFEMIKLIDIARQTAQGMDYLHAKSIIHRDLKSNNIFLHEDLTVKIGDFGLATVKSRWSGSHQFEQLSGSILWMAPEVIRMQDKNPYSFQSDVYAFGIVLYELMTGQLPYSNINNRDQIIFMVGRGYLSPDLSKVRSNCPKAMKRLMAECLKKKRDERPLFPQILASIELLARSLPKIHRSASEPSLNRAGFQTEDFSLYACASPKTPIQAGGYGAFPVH
BRAF^V600E, sequence (P15056 whole entry V600E): as the sequence (P15056 whole entry) above, with V600E counted along it
CRAF, sequence (P04049 306-648 Y340D/Y341D): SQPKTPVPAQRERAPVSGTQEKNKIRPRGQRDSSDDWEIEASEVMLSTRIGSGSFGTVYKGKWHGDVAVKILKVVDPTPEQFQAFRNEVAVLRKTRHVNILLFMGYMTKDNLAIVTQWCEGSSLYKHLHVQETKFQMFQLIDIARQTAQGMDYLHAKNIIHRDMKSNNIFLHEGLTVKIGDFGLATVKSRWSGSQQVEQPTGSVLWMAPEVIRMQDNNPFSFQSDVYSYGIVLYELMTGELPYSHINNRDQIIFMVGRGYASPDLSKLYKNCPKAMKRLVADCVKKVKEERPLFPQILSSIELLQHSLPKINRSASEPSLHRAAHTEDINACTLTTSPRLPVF

`Cc1ccc2c(Nc3cccc(Cl)c3F)nccc2c1NC(=O)c1csc2c(N)ncnc12` [Belvarafenib] gave a GI50 [1] of 163 nM, a Ki [2] of 2 nM and a Ki [3] of 41 nM. The Ki [4] was 2 nM, the “treatment Duration” value ([5]; BRAF^V600E CRC, 200 mg BID) was 303 days and 255 days and the “treatment Duration” value ([5]; BRAF^V600E GIST, 200 mg BID) was 512 days. For the same molecule, the “Best Change (size of target lesions from baseline)” value (“Best Change” for short) ([5]; BRAF^V600E GIST, 450 mg BID) was −38.1%, the “treatment Duration” value [5, 6] was 377 days and the “Best Change” value [5, 6] was −33.2%. For the same molecule, the “treatment Duration” value ([5]; BRAF^V600E Melanoma, 800 mg BID) was 702 days, the tumor response duration ([5]; BRAFm GIST) was 36 weeks and the “BORR (unconf.)” value ([5]; All pts (N = 67)) was 7 (10.5) n (%). The DCR ([5]; All pts (N = 67)) was 34 (50.6) n(%), the “ORR (conf.)” value ([5]; All pts (N = 67)) was 3 (4.5) n(%) and the “PFS Median” value ([5]; All pts (N = 67)) was 11.5 weeks. For the same molecule, the “DOR Median” value ([5]; All pts, 7 responders) was 24.0 weeks, the “BORR (unconf.)” value ([5]; NRASm mel. (N = 9)) was 4 (44.4) n (%) and the DCR ([5]; NRASm mel. (N = 9)) was 6 (66.7) n(%). For the same molecule, the “ORR (conf.)” value ([5]; NRASm mel. (N = 9)) was 1 (11.1) n(%), the “PFS Median” value ([5]; NRASm mel. (N = 9)) was 25 weeks and 24.9 weeks and the “DOR Median” value ([5]; NRASm mel., 4 responders) was 17.8 weeks. The “treatment Duration” value ([5]; KRAS^G12C CRC, 100 mg BID) was 437 days, the “treatment Duration” value ([5]; KRAS^G12V Bladder, 300 mg BID) was 311 days and the “Best Change” value ([5]; KRAS^G12V Sarcoma, 450 mg BID) was −50.5%. For the same molecule, the tumor response duration ([5]; KRASm sarcoma) was 18 weeks, the “treatment Duration” value ([5]; NRAS^G12C Melanoma, 800 mg BID) was 611 days and the “Best Change” value ([5]; NRAS^G12D Melanoma, 450 mg BID) was −44.4%. The “Best Change” value ([5]; NRAS^Q61 AND BRAF^V600E Melanoma, 450 mg BID) was −33.8%, the “treatment Duration” value ([5]; NRAS^Q61K Melanoma, 200 mg BID) was 307 days and the “treatment Duration” value ([5]; NRAS^Q61K Melanoma, 300 mg BID) was 278 days. For the same molecule, the “Best Change” value ([5]; NRAS^Q61K Melanoma, 450 mg BID) was −36.2%, the “Best Change” value ([5]; NRAS^Q61R Melanoma, 450 mg BID) was −30.6% and the “patients with best overall response of partial response (PR)” value ([5]; dose-escalation, 67 patients) was 10.4%. The “best overall response rate [BORR]” value ([5]; dose-escalation, NRASm melanoma, 9 patients) was 44%.
